# Source: paper PMC3185582 (Viruses, 2010)
# Where two headings read alike, the source gives them in different places.
# Assays:
# vaccinia virus [1] = assay type: cell-based
# cowpox virus = assay type: cell-based
# [2] = methanol, ethanol and acetonitrile
# [3] = for increase in AUC values (accumulation): 28 day repeat dose study
# CYP2C19 = CYP2C19 (Homo sapiens, UniProt P33261); assay: in vitro
# in vivo [4] = details: Sprague-Dawley, rat, po, 30 mg/kg
# [5] = tested on: vaccinia virus in BSC-40 cell monolayers; details: 10 μM, 5 pfu/cell; ref Chen et al. [48]; cited from earlier work
# [6] = rat, mouse and dog microsomes
# in vivo [7] = details: BALB/c, mouse
# [8] = not given; remark: listed apart in the source
# unrelated viruses = details: read-out: EC50 for inhibition of viral replication; cited from earlier work
# [9] = 300 mg/kg, repeat dose studies
# cytochrome P450 (CYP) = details: 10 μM (3,700 ng/mL)
# [10] = top dose 2000 mg/kg
# [11] = tested on: monkeypox virus clinical isolates; details: cited from earlier work
# CYP2C8 = CYP2C8 (Homo sapiens, UniProt P10632); assay: in vitro
# [12] = tested on: variola virus clinical isolates; details: cited from earlier work
# variola virus [13] = tested on: variola virus; design: species or system cynomolgus macaques; details: cynomolgus monkey, in vivo
# in vivo [14] = details: BALB/c, mouse, 30 mg/kg
# [15] = not given; remark: listed apart in the source
# [16] = monkey or human microsomes
# monkeypox virus [17] = details: cynomolgus monkey, in vivo, cited from earlier work
# in vivo [18] = details: dog
# variola virus [19] = details: cynomolgus monkey, in vivo, cited from earlier work
# p37 with Rab9 and TIP47 = details: cited from earlier work
# [20] = not given; remark: listed apart in the source
# [21] = not given; remark: listed apart in the source
# Vaccinia [22] = details: mouse, in vivo, po, 100 mg/kg
# in vivo [23] = details: both, cynomolgus, monkey
# vaccinia virus [24] = details: CPE assay; read-out: EC50 for inhibition of viral replication; cited from earlier work
# CYP2B6 = CYP2B6 (Homo sapiens, UniProt P20813); assay: in vitro
# poxvirus = details: mouse, in vivo; cited from earlier work
# [25] = tested on: selected cell lines from mouse, rabbit, monkey, and humans; details: cited from earlier work
# [26] = tested on: vaccinia virus in BSC-40 cell monolayers; assay type: cell-based
# monkeypox virus [27] = tested on: monkeypox virus; design: species or system prairie dogs; details: dog, in vivo
# [28] = 12 daily doses of 300 mg/kg
# [29] = mouse, in vivo
# ectromelia virus = details: read-out: EC50 for inhibition of viral replication; cited from earlier work
# Rabbitpox = details: rabbit, in vivo, cited from earlier work
# Ectromelia = details: mouse, in vivo, cited from earlier work
# Vaccinia [30] = details: mouse, in vivo, cited from earlier work
# CYP2E1 = CYP2E1 (Homo sapiens, UniProt P05181); assay: in vitro
# CYP1A2 = CYP1A2 (Homo sapiens, UniProt P05177); assay: in vitro
# vero and BSC40 cells = details: ST-246 treatment, 50 uM; unpublished work [21]
# monkeypox virus [31] = tested on: monkeypox virus; design: species or system cynomolgus macaques; details: cynomolgus monkey, in vivo
# [32] = mouse, in vivo; remark: listed apart in the source
# orthopoxviruses = tested on: orthopoxviruses; design: species or system mice; details: mouse, in vivo
# Monkeypox = details: in vivo, cited from earlier work
# Cowpox = details: mouse, in vivo, cited from earlier work
# in vivo [33] = details: cynomolgus monkey
# [34] = single oral dose, tidal volume
# [35] = by 96 hours after oral administration
# Sequence of CYP2E1 (P05181 whole entry): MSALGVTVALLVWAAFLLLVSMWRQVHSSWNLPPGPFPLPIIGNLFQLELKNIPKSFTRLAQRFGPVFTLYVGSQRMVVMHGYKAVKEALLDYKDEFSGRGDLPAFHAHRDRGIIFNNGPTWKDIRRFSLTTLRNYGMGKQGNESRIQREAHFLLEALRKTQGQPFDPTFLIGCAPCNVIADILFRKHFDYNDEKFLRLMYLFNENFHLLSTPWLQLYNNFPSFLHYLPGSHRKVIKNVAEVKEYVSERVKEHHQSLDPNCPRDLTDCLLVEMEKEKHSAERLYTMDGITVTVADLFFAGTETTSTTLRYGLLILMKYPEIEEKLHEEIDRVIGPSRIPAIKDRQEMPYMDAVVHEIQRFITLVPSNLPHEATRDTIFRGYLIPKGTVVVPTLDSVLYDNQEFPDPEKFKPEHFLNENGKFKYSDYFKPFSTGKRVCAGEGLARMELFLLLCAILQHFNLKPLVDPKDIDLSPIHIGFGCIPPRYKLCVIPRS
# Sequence of CYP1A2 (P05177 whole entry): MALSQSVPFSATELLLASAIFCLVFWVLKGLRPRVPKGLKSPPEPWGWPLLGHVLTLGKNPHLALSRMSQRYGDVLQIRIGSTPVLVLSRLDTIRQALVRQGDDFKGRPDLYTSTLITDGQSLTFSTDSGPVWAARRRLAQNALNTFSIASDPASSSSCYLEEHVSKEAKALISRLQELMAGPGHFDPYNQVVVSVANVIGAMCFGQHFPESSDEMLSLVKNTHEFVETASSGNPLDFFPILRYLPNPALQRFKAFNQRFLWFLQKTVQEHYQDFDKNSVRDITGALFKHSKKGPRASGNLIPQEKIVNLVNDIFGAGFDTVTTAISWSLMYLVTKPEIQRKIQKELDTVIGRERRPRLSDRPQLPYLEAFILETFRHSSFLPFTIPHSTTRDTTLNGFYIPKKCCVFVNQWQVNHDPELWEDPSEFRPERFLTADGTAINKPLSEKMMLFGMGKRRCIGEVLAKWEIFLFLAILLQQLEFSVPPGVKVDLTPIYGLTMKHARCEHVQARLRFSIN
# Sequence of CYP2B6 (P20813 whole entry): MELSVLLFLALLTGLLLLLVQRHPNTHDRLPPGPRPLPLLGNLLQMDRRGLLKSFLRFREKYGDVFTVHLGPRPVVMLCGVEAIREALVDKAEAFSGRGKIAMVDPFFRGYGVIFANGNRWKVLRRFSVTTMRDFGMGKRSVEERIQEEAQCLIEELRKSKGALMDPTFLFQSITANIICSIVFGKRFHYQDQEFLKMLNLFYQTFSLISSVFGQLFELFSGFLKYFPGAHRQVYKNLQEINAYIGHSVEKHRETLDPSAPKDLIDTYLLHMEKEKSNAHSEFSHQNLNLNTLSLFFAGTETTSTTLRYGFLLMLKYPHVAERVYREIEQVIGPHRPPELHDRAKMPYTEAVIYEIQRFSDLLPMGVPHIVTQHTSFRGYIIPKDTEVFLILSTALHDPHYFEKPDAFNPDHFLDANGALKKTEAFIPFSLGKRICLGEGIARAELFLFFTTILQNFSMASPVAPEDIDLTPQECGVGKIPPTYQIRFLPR
# Sequence of CYP2C19 (P33261 whole entry): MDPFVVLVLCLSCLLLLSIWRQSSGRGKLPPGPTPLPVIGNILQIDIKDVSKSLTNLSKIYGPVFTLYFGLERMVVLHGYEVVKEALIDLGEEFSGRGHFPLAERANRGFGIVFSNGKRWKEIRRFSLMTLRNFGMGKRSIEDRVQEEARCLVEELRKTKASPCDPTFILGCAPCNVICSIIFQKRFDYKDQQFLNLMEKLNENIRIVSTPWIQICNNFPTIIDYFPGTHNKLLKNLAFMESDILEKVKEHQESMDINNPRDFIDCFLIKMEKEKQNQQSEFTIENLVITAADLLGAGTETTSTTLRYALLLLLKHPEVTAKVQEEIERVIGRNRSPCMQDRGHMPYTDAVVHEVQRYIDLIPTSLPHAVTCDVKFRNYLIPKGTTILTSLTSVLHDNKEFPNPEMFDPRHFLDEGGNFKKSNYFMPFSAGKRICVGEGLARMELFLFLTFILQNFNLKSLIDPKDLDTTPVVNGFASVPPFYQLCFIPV
# Sequence of CYP2C8 (P10632 whole entry): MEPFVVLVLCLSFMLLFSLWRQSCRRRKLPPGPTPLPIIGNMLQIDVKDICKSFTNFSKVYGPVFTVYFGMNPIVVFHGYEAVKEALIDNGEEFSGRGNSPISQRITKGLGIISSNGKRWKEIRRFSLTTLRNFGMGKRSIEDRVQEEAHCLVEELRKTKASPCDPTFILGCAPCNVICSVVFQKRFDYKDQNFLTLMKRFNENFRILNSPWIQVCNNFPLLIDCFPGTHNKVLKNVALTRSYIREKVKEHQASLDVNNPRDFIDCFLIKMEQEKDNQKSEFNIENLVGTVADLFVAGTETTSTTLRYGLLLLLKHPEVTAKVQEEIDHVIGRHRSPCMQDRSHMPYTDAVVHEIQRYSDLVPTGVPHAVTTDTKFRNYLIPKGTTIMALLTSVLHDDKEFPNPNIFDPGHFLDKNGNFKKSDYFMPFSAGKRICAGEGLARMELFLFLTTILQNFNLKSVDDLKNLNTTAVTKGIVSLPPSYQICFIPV
smiles,measurement,setting,value
O=C(NN1C(=O)C2C3C=CC(C4CC34)C2C1=O)c1ccc([N+](=O)[O-])cc1 (centres unmarked) [4-nitrophenyl],fold more potent than the 4-dimethylaminophenyl analog,vaccinia virus [1],100 fold
same,fold more potent than the 4-dimethylaminophenyl analog,cowpox virus,100 fold
"O=C(NN1C(=O)[C@@H]2[C@@H]3C=C[C@@H]([C@H]4C[C@@H]34)[C@@H]2C1=O)c1ccc(C(F)(F)F)cc1 [ST-246, Tecovirimat]",solubility in organic solvents,[2],very soluble
same,increase in AUC values (accumulation),[3]; 1000 mg/kg,approximately 25%
same,increase in AUC values (accumulation),[3]; 2000 mg/kg,approximately 50%
same,terminal elimination half-life,[3]; once a day dosing,approximately four
same,inhibition at 300 µM,CYP2C19,< 50%
same,bioavailability,in vivo [4]; female,33%
same,bioavailability,in vivo [4]; male,90%
same,time to nearly complete elimination of radioactivity,after oral administration,≤ 96 h
same,radioactivity eliminated in the urine,[35],24%
same,radioactivity eliminated through the feces,[35],approximately 72%
same,extracellular virus (CEV and EEV) formation,[5],inhibits
same,cleavage liberating 4-trifluoromethylbenzoic acid,[6],small amounts of ST-246 were cleaved
same,NOAEL at 3 months,in vivo [7]; 1000 mg/kg,1000 mg/kg
same,MTD,in vivo [7]; 2000 mg/kg,2000 mg/kg
same,MTD at 28 days,in vivo [7]; 2000 mg/kg,2000 mg/kg
same,NOAEL at 28 days,in vivo [7]; 2000 mg/kg,2000 mg/kg
same,plasma protein binding,[8],moderate to high
same,EC50,unrelated viruses,> 40 µM
same,QTc,[9],no prolongation
same,cytochrome P450 (CYP) induction,cytochrome P450 (CYP),no significant
same,behavioral or other functional changes,[10],did not elicit any
same,inhibition of clinical isolates in cell culture,[11],inhibited
same,inhibition at 300 µM,CYP2C8,< 50%
same,inhibition of clinical isolates in cell culture,[12],inhibited
same,lesion numbers compared to placebo-treated animals,variola virus [13],reduced lesion numbers
same,genotoxicity,bacterial,not genotoxic
same,bioavailability,in vivo [14],~40%
same,radiolabel in the milk,[15]; nursing dams,< 1%
same,radiolabel in the placenta,[15]; pregnant mice,only very low levels
same,cleavage metabolites,[16],not seen
same,"Optimal oral dose mg/kg, s.i.d.",monkeypox virus [17]; po,3 mg/kg
same,Time of treatment,monkeypox virus [17],96h.p.i. (100%)
same,Time of treatment (% efficacy),monkeypox virus [17],96h.p.i. (100%)
same,protection from death,monkeypox virus [17],100%
same,protection from lethal infection,monkeypox virus [17],100%
same,MTD,in vivo [18],30 mg/kg
same,"Optimal oral dose mg/kg, s.i.d.",variola virus [19]; po,10 mg/kg
same,Time of treatment,variola virus [19],24 h.p.i. (100%)
same,Time of treatment (% efficacy),variola virus [19],24 h.p.i. (100%)
same,interaction of p37 with Rab9 and TIP47,p37 with Rab9 and TIP47,blocks
same,maternal toxicity,"[20]; Segment II study, highest dose 100 mg/kg",some maternal toxicity
same,"fertility, fetal resorptions, fetal abnormalities or toxicity","[20]; rabbit, in vivo",no evidence
same,clinical observations,[21]; 300 mg/kg,ataxia was observed four hours post dose in one female NHP
same,NOEL,[21]; 3 Month study,300 mg/kg
same,NOEL,[21]; 28 Day repeat dose study,300 mg/kg
same,multiple-dose NOEL,[21]; monkey,300 mg/kg/day
same,clinical observations,[21]; single dose 1000 mg/kg,This was also observed
same,clinical observations,"[21]; single oral dose 2000 mg/kg, male and female",decreased activity and ataxia
same,protection from systemic disease,Vaccinia [22],protects mice from systemic disease
same,genotoxicity,mammalian cell,not genotoxic
same,NOAEL,in vivo [23],2000 mg/kg
same,EC50,vaccinia virus [24],10 nM
same,inhibition at 300 µM,CYP2B6,< 50%
same,protection from lethal infection,poxvirus,protect
same,CC50,[25],> 50 µM
same,plaque formation,[26],inhibits
same,CYP induction,CYP 2C19,induction was observed
same,protection from death,monkeypox virus [27],100%
same,metabolism by cytochrome P450 isozymes,cytochrome P450 isozymes,not metabolized to any significant degree
same,CYP induction,CYP 2B6,induction was observed
same,electroencephalograms and seizure thresholds,[28],no evidence of altered electroencephalograms or lowered seizure thresholds
same,chromosomal damage or bone marrow toxicity,[29],did not cause
same,EC50,ectromelia virus,70 nM
same,"Optimal oral dose mg/kg, s.i.d.",Rabbitpox; po,40 mg/kg
same,Time of treatment,Rabbitpox,48 h.p.i. (100%)
same,Time of treatment (% efficacy),Rabbitpox,48 h.p.i. (100%)
same,"Optimal oral dose mg/kg, s.i.d.",Ectromelia; po,100 mg/kg
same,Optimal dose duration,Ectromelia,>5 days (100%)
same,Optimal dose duration (% efficacy),Ectromelia,>5 days (100%)
same,Time of treatment,Ectromelia,72 h.p.i. (100%)
same,Time of treatment (% efficacy),Ectromelia,72 h.p.i. (100%)
same,"Optimal oral dose mg/kg, s.i.d.",Vaccinia [30]; po,100 mg/kg
same,Optimal dose duration,Vaccinia [30],>5 days (100%]
same,Optimal dose duration (% efficacy),Vaccinia [30],>5 days (100%]
same,inhibition at 300 µM,CYP2E1,< 50%
same,inhibition at 300 µM,CYP1A2,< 50%
same,growth of cells,vero and BSC40 cells,not affected
same,protection from lethal infection,monkeypox virus [31],protected animals from lethal infection
same,"protection from lethal infection, latest administration",monkeypox virus [31],as late as five days post-inoculation
same,Caco-2 membrane permeability,Caco-2,good
same,"fertility, fetal resorptions, fetal abnormalities or toxicity",[32],no evidence
same,latest treatment initiation for full protection,orthopoxviruses,≤ 72 hours post-infection
same,optimal dosing period,orthopoxviruses; 100 mg/kg,greater than seven days
same,optimal once per day oral dose for protective efficacy,orthopoxviruses; po,100 mg/kg
same,"Optimal oral dose mg/kg, s.i.d.",Monkeypox; po,100 mg/kg
same,Time of treatment,Monkeypox,72 h.p.i. (100%)
same,Time of treatment (% efficacy),Monkeypox,72 h.p.i. (100%)
same,"Optimal oral dose mg/kg, s.i.d.",Cowpox; po,100 mg/kg
same,Optimal dose duration,Cowpox,>7 days (93%]
same,Optimal dose duration (% efficacy),Cowpox,>7 days (93%]
same,Time of treatment,Cowpox,48 h.p.i. (93%)
same,Time of treatment (% efficacy),Cowpox,48 h.p.i. (93%)
same,clearance,"in vivo [33]; both, iv, 1 mg/kg",~18.3 mL/min/kg
same,bioavailability,in vivo [33]; fasted,~25%
same,bioavailability,in vivo [33]; fed state,~50%
same,no observable effect level (NOEL),[34],2000 mg/kg
